We go through 18 compounds from ChEMBL document CHEMBL2150866, “Irreversible 4-Aminopiperidine Transglutaminase 2 Inhibitors for Huntington's Disease” (ACS Med Chem Lett, 2012).

Each structure is given as a SMILES string.

System in one series: not listed separately
Briefly: Half life in human plasma at 1 uM.
Conditions: not given
In kind it is ADME, cell-free.
The term half-life denotes the time in which the quantity being followed falls by half. Consider `C=CC(=O)NC1CCN(S(=O)(=O)c2ccc(C(=O)NCc3cccc4ccccc34)cc2)CC1`, for which the half-life at 1 µM is more than 6 h.

As for `C=CC(=O)NC1CCN(S(=O)(=O)c2ccc(C(=O)NC3CCCc4ccccc43)cc2)CC1` (stereo not given), the half-life at 1 µM was more than 6 h.

Take `C=CC(=O)NC1CCN(S(=O)(=O)c2ccc(C(=O)NC3Cc4ccccc4C3)cc2)CC1`: the half-life at 1 µM is more than 6 h.

Compound `C=CC(=O)NC1CCN(S(=O)(=O)c2ccc(C(=O)NCCc3ccc(C(F)(F)F)cc3)cc2)CC1` gave a half-life at 1 µM of more than 6 h.

On to `C=CC(=O)NC1CCN(S(=O)(=O)c2ccc(C(=O)NCCc3ccc(Cl)cc3)cc2)CC1`, for which the half-life at 1 µM is more than 6 h.

As to `C=CC(=O)NC1CCN(S(=O)(=O)c2ccc(C(=O)NCCc3ccc(C(C)(C)C)cc3)cc2)CC1`, the half-life at 1 µM was more than 6 h.

As to `C=CC(=O)NC1CCN(S(=O)(=O)c2ccc(C(=O)NCCc3ccc(-c4ccccc4)cc3)cc2)CC1`, the half-life at 1 µM was more than 6 h.

For the compound `C=CC(=O)NC1CCN(S(=O)(=O)c2ccc(C(=O)NCCc3ccc4ccccc4c3)cc2)CC1`, the half-life at 1 µM was more than 6 h.

For `C=CC(=O)NC1CCN(S(=O)(=O)c2ccc(C(=O)NCCc3ccc4cccnc4c3)cc2)CC1`, the half-life at 1 µM was more than 6 h.

Consider `C=CC(=O)NC1CCN(S(=O)(=O)c2ccc(C(=O)NCCc3ccccc3OC)cc2)CC1`, for which the half-life at 1 µM was more than 6 h.

For the compound `C=CC(=O)NC1CCN(S(=O)(=O)c2ccc(C(=O)NCCc3ccc(OC)c(OC)c3)cc2)CC1`, the half-life at 1 µM is more than 6 h.

In turn, `C=CC(=O)NC1CCN(S(=O)(=O)c2ccc(C(=O)NCCc3cccc4c3OCO4)cc2)CC1` gave a half-life at 1 µM of more than 6 h.

With `C=CC(=O)NC1CCN(S(=O)(=O)c2ccc(C(=O)NCCc3cccc4c3OCC4)cc2)CC1`, the half-life at 1 µM was more than 6 h.

On to `C=CC(=O)NC1CCN(S(=O)(=O)c2ccc(C(=O)NCCc3cccc(Cl)c3)cc2)CC1`, for which the half-life at 1 µM was more than 6 h.

`C=CC(=O)NC1CCN(S(=O)(=O)c2ccc(C(=O)NCCc3ccc(C)c(C)c3)cc2)CC1` yielded a half-life at 1 µM of more than 6 h.

In the case of `C=CC(=O)NC1CCN(C(=O)c2ccc(NC(=O)OCc3ccccc3)cc2)CC1`, the half-life at 1 µM is more than 6 h.

For the compound `C=CC(=O)NC1CCN(Cc2ccc(NC(=O)OCc3ccccc3)cc2)CC1`, the half-life at 1 µM was more than 6 h.

Compound `C=CC(=O)NC1CCN(S(=O)(=O)c2ccc(C(=O)N[C@@H]3C[C@H]3c3ccccc3)cc2)CC1` (racemic) registered a half-life at 1 µM of more than 6 h.

System in the next series: not listed separately
Briefly: Half life in mouse plasma at 1 uM. Type of series: ADME, cell-free.
Conditions: not given
In turn, `C=CC(=O)NC1CCN(S(=O)(=O)c2ccc(C(=O)NCc3cccc4ccccc34)cc2)CC1` displayed a half-life at 1 µM of more than 6 h.

Regarding `C=CC(=O)NC1CCN(S(=O)(=O)c2ccc(C(=O)NC3CCCc4ccccc43)cc2)CC1` (stereo not given), the half-life at 1 µM was more than 6 h.

Turning to `C=CC(=O)NC1CCN(S(=O)(=O)c2ccc(C(=O)NC3Cc4ccccc4C3)cc2)CC1`, the half-life at 1 µM was more than 6 h.

Compound `C=CC(=O)NC1CCN(S(=O)(=O)c2ccc(C(=O)NCCc3ccc(C(F)(F)F)cc3)cc2)CC1` returned a half-life at 1 µM of more than 6 h.

Turning to `C=CC(=O)NC1CCN(S(=O)(=O)c2ccc(C(=O)NCCc3ccc(Cl)cc3)cc2)CC1`, the half-life at 1 µM was more than 6 h.

As to `C=CC(=O)NC1CCN(S(=O)(=O)c2ccc(C(=O)NCCc3ccc(C(C)(C)C)cc3)cc2)CC1`, the half-life at 1 µM was more than 6 h.

Take `C=CC(=O)NC1CCN(S(=O)(=O)c2ccc(C(=O)NCCc3ccc(-c4ccccc4)cc3)cc2)CC1`: the half-life at 1 µM was more than 6 h.

In turn, `C=CC(=O)NC1CCN(S(=O)(=O)c2ccc(C(=O)NCCc3ccc4ccccc4c3)cc2)CC1` had a half-life at 1 µM of more than 6 h.

Compound `C=CC(=O)NC1CCN(S(=O)(=O)c2ccc(C(=O)NCCc3ccc4cccnc4c3)cc2)CC1` came in with a half-life at 1 µM of more than 6 h.

`C=CC(=O)NC1CCN(S(=O)(=O)c2ccc(C(=O)NCCc3ccccc3OC)cc2)CC1` yielded a half-life at 1 µM of more than 6 h.

As to `C=CC(=O)NC1CCN(S(=O)(=O)c2ccc(C(=O)NCCc3ccc(OC)c(OC)c3)cc2)CC1`, the half-life at 1 µM is more than 6 h.

Compound `C=CC(=O)NC1CCN(S(=O)(=O)c2ccc(C(=O)NCCc3cccc4c3OCO4)cc2)CC1` returned a half-life at 1 µM of more than 6 h.

Consider `C=CC(=O)NC1CCN(S(=O)(=O)c2ccc(C(=O)NCCc3cccc4c3OCC4)cc2)CC1`, for which the half-life at 1 µM was more than 6 h.

Turning to `C=CC(=O)NC1CCN(S(=O)(=O)c2ccc(C(=O)NCCc3cccc(Cl)c3)cc2)CC1`, the half-life at 1 µM is more than 6 h.

Consider `C=CC(=O)NC1CCN(S(=O)(=O)c2ccc(C(=O)NCCc3ccc(C)c(C)c3)cc2)CC1`, for which the half-life at 1 µM is more than 6 h.

For the compound `C=CC(=O)NC1CCN(C(=O)c2ccc(NC(=O)OCc3ccccc3)cc2)CC1`, the half-life at 1 µM was more than 6 h.

Consider `C=CC(=O)NC1CCN(Cc2ccc(NC(=O)OCc3ccccc3)cc2)CC1`, for which the half-life at 1 µM is more than 6 h.

In turn, `C=CC(=O)NC1CCN(S(=O)(=O)c2ccc(C(=O)N[C@@H]3C[C@H]3c3ccccc3)cc2)CC1` (racemic) registered a half-life at 1 µM of more than 6 h.

The target of a further series is T1, Protein-glutamine gamma-glutamyltransferase (Homo sapiens, UniProt P21980).
T1 sequence (P21980 whole entry): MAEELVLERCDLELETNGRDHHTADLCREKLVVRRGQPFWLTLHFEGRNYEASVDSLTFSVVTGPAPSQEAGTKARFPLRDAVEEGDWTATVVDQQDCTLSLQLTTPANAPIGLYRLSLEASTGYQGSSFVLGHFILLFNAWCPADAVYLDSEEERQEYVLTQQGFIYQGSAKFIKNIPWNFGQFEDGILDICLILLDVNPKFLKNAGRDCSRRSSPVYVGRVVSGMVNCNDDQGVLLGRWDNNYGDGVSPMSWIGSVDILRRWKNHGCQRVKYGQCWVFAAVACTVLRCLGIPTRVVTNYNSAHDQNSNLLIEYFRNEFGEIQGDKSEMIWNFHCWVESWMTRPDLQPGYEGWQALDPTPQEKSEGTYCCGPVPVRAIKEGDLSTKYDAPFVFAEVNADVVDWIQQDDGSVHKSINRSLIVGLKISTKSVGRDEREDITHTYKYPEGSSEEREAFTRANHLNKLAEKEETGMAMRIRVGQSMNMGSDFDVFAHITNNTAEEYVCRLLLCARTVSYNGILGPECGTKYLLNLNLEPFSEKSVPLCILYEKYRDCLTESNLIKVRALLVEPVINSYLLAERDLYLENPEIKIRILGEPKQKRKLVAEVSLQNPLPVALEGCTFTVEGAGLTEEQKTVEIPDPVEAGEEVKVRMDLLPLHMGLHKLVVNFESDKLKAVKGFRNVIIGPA
Kind of series: Inhibition of human TGM2.
Conditions: not given
One may read the IC50 as the point on the concentration scale where inhibition reaches its midpoint. A lower IC50 goes with greater potency in that assay. Compound `C=CC(=O)NC1CCN(S(=O)(=O)c2ccc(C(=O)NCc3cccc4ccccc34)cc2)CC1` registered an IC50 of 170 nM.

Regarding `C=CC(=O)NC1CCN(S(=O)(=O)c2ccc(C(=O)NC3CCCc4ccccc43)cc2)CC1` (stereo not given), it took 320 nM to reach half-maximal inhibition (IC50).

On to `C=CC(=O)NC1CCN(S(=O)(=O)c2ccc(C(=O)NC3Cc4ccccc4C3)cc2)CC1`, for which the half-maximal inhibitory concentration (IC50) turned out to be 200 nM.

`C=CC(=O)NC1CCN(S(=O)(=O)c2ccc(C(=O)NCCc3ccc(C(F)(F)F)cc3)cc2)CC1`: the half-maximal inhibitory concentration (IC50) amounted to 550 nM.

As for `C=CC(=O)NC1CCN(S(=O)(=O)c2ccc(C(=O)NCCc3ccc(Cl)cc3)cc2)CC1`, the IC50 came out at 280 nM.

For `C=CC(=O)NC1CCN(S(=O)(=O)c2ccc(C(=O)NCCc3ccc(C(C)(C)C)cc3)cc2)CC1`, the midpoint of inhibition, the IC50, lay at 22000 nM.

`C=CC(=O)NC1CCN(S(=O)(=O)c2ccc(C(=O)NCCc3ccc(-c4ccccc4)cc3)cc2)CC1` showed an IC50 of 57000 nM.

Turning to `C=CC(=O)NC1CCN(S(=O)(=O)c2ccc(C(=O)NCCc3ccc4ccccc4c3)cc2)CC1`, the IC50 is 280 nM.

The compound `C=CC(=O)NC1CCN(S(=O)(=O)c2ccc(C(=O)NCCc3ccc4cccnc4c3)cc2)CC1` came in with a concentration for half-maximal inhibition (IC50) of 310 nM.

`C=CC(=O)NC1CCN(S(=O)(=O)c2ccc(C(=O)NCCc3ccccc3OC)cc2)CC1` showed an IC50 of 230 nM.

Compound `C=CC(=O)NC1CCN(S(=O)(=O)c2ccc(C(=O)NCCc3ccc(OC)c(OC)c3)cc2)CC1` had an IC50 of 460 nM. This IC50 lies about 2-fold higher than the previous one.

The compound `C=CC(=O)NC1CCN(S(=O)(=O)c2ccc(C(=O)NCCc3cccc4c3OCO4)cc2)CC1` registered an IC50 of 280 nM.

Regarding `C=CC(=O)NC1CCN(S(=O)(=O)c2ccc(C(=O)NCCc3cccc4c3OCC4)cc2)CC1`, the IC50 worked out at 260 nM.

Consider `C=CC(=O)NC1CCN(S(=O)(=O)c2ccc(C(=O)NCCc3cccc(Cl)c3)cc2)CC1`, for which the IC50 stood at 170 nM.

`C=CC(=O)NC1CCN(S(=O)(=O)c2ccc(C(=O)NCCc3ccc(C)c(C)c3)cc2)CC1`: the IC50 worked out at 180 nM.

Turning to `C=CC(=O)NC1CCN(C(=O)c2ccc(NC(=O)OCc3ccccc3)cc2)CC1`, the midpoint of inhibition, the IC50, lay at 8900 nM.

In the case of `C=CC(=O)NC1CCN(Cc2ccc(NC(=O)OCc3ccccc3)cc2)CC1`, half-maximal inhibition (IC50) required 1600 nM. Against the preceding compound, the IC50 is about 5.6-fold lower.

For `C=CC(=O)NC1CCN(S(=O)(=O)c2ccc(C(=O)N[C@@H]3C[C@H]3c3ccccc3)cc2)CC1` (racemic), the IC50 is 410 nM. Compared with the last compound, the IC50 is about 3.9-fold lower.

System in another series: not listed separately
Briefly: Chemical stability of the compound in phosphate buffer at pH 7.4 assessed as GSH adduct formation after 120 hrs. Type of series: physicochemical. Conditions: pH 7.4, 120 h.
On to `C=CC(=O)NC1CCN(S(=O)(=O)c2ccc(C(=O)NCCc3cccc(Cl)c3)cc2)CC1`, for which the Stability result is listed as “Stable”.
